Like-named read-outs stand apart in the source and are kept apart here. Marks after values point to notes of the source that are not given here.
Key:
[1] = for Mean values of the initial boron retention: before leaching, (standard deviations); for Mean of boron retained in wood (std. dev): mean of three samples
Method: Accelerated leaching tests were performed according to AWPA E11-97 (AWPA, 2003). Four Southern yellow pine (Pinus sp.) samples were leached, each in its own leaching flask. At the end of each leaching period, the leachate was collected and the samples were air dried for two weeks. The amount of boron retained in the wood was determined by inductive coupled plasma (ICP) spectrometry after boron was extracted with hydrochloric acid from the ground wood.

White rot = details: for % mass loss (std. dev): White rot, 16 weeks decay
Method: (§1) Decay tests were conducted on wood blocks, both leached and unleached. Samples were halved, with one group subjected to weathering and the other group maintained unweathered. Both sets of samples were subjected to a soil block culture test according to the AWPA E10-01 method. For each block, the percentage of mass loss was determined. These samples were allowed to decay for 12 weeks for brown rot decay and for 16 weeks for white rot decay.

Brown rot = details: 12 weeks decay
Method: as §1

From the text for Coptotermes formosanus: The wood cubes also were subjected to a termite mortality test (Coptotermes formosanus).

Mean values of the initial boron retention ([1]; Southern yellow pine cubes, samples for Leaching test): 2075.0^a (2.19)^b ppm
Mean of boron retained in wood (std. dev) ([1]; leaching duration 0 (Not unleached)): 2075.0 (80.18) ppm
Mean of boron retained in wood (std. dev) ([1]; leaching duration 6 hours): 1005.00 (125.2) ppm
Mean of boron retained in wood (std. dev) ([1]; leaching duration 24 hours): 737.13 (40.85) ppm
Mean of boron retained in wood (std. dev) ([1]; leaching duration 2 days): 99.32 (17.84) ppm
Mean of boron retained in wood (std. dev) ([1]; leaching duration 4 days): 25.37 (2.81) ppm
Mean of boron retained in wood (std. dev) ([1]; leaching duration 6 days): 2.908 (0.61) ppm
Mean of boron retained in wood (std. dev) ([1]; leaching duration 8 days): 2.941 (0.83) ppm
Mean of boron retained in wood (std. dev) ([1]; leaching duration 10 days): 2.89 (0.79) ppm
Mean of boron retained in wood (std. dev) ([1]; leaching duration 12 days): 2.79 (0.53) ppm
Mean of boron retained in wood (std. dev) ([1]; leaching duration 14 days): 2.8 (0.82) ppm
loss of boron on leaching (in words) ([1]; leaching of treated wood cubes): lost most of their boron within 6 hours
Mean values of the initial boron retention ([1]; samples for Brown rot test): 2227.31 (3.27) ppm
Mean values of the initial boron retention ([1]; samples for White rot test): 2225.43 (1.27) ppm
SMILES: OB(O)O [Boric acid only, Boric acid]
% mass loss (std. dev) (White rot; Not leached samples): 2.51 (0.51) %
% mass loss (std. dev) (White rot; leached samples): 16.59 (2.19) %
decay resistance (in words) (White rot; leached samples, summary of Table 4 for white rot and brown rot): no significant decay resistance
% mass loss (std. dev) (Brown rot; Not leached samples): 3.21 (0.22) %
% mass loss (std. dev) (Brown rot; leached samples): 18.88 (2.30) %
Termite mortality (%) (Coptotermes formosanus; in vivo): 4.3%
protection against termites (in words) (Coptotermes formosanus; treated wood cubes, boron-CA-SS after leaching): adequate protection against termites
